Target: DGKα (Homo sapiens (Human), UniProt P23743)
Experiment: Human DGKα kinase activity inhibition assay (ADP-Glo)
Format: biochemical
Settings: recombinant full-length human DGKα, 55 μM ATP, 7 μM 1,2-dioleoyl-sn-glycerol, read-out: IC50 values of examples in in vitro human DGKa kinase activity inhibition assays
In short: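 Recombinant full-length human DGKα (C-terminal FLAG, from insect cells) phosphorylated 1,2-dioleoyl-sn-glycerol presented in octyl-glucopyranoside micelles. ADP formed was quantified by ADP-Glo luminescence. Compounds were added from 100-fold DMSO stocks.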

DGKα, sequence (P23743 other isoform, or with tags, fused parts or gaps): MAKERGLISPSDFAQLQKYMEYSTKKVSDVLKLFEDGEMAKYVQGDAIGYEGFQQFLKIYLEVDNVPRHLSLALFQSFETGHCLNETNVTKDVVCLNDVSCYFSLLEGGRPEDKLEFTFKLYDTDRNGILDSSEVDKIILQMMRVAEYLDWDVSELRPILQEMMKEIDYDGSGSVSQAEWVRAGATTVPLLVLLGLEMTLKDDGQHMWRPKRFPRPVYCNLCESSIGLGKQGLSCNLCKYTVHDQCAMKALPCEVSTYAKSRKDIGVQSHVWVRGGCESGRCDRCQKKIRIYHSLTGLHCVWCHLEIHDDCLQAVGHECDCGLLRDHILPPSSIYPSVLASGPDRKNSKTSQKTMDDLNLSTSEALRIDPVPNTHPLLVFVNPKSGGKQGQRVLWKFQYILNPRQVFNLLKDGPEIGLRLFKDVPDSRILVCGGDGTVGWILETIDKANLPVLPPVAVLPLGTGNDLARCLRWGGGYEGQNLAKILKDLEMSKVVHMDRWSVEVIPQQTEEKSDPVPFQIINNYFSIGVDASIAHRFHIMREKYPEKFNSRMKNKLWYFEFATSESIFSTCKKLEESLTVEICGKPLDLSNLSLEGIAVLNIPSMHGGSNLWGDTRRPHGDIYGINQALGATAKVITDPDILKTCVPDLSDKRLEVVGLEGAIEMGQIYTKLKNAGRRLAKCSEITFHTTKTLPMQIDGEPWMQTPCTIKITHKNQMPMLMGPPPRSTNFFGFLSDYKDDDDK

SMILES	IC50
Cc1ccc2oc(C3CCN(c4c(C#N)c(=O)n(C)c5cc(OCC6CO6)ccc45)CC3)nc2c1 (stereo not drawn) [Example 384, 1-methyl-4-[4-(5-methyl-1,3-benzoxazol-2-yl)piperidin-1-yl]-7-{[oxiran-2-yl]methoxy}-2-oxo-1,2-dihydroquinoline-3-carbonitrile]	1.8 nM
COc1ccc(C2CCN(c3c(C#N)c(=O)n(C)c4cc(C5COC5)ccc34)CC2)cc1 [Example 97, 4-[4-(4-methoxyphenyl)piperidin-1-yl]-1-methyl-7-(oxetan-3-yl)-2-oxo-1,2-dihydroquinoline-3-carbonitrile]	33 nM
Cn1c(=O)c(C(N)=O)c(N2CCC(C)(c3nc4ccccc4o3)CC2)c2cc(F)ccc21 [Example 296, 4-[4-(1,3-benzoxazol-2-yl)-4-methylpiperidin-1-yl]-6-fluoro-1-methyl-2-oxo-1,2-dihydroquinoline-3-carboxamide]	0.5 nM
Cc1ccc2oc(C3(C)CCN(c4c(C#N)c(=O)n(C)c5cc(O)c(Br)cc45)CC3)nc2c1 [Example 423, 6-bromo-7-hydroxy-1-methyl-4-[4-methyl-4-(5-methyl-1,3-benzoxazol-2-yl)piperidin-1-yl]-2-oxo-1,2-dihydroquinoline-3-carbonitrile]	1 nM
COc1ccccc1C1(O)CCN(c2c(C#N)c(=O)n(C)c3ccccc23)CC1 [Example 331, 4-[4-hydroxy-4-(2-methoxyphenyl)piperidin-1-yl]-1-methyl-2-oxo-1,2-dihydroquinoline-3-carbonitrile]	861 nM
Cc1ccc2oc(C3CCN(c4c(C(N)=O)c(=O)n(C)c5c(Cl)cccc45)CC3)nc2c1 [Example 319, 8-chloro-1-methyl-4-[4-(5-methyl-1,3-benzoxazol-2-yl)piperidin-1-yl]-2-oxo-1,2-dihydroquinoline-3-carboxamide]	74 nM
Cc1ccccc1-c1nnc(C2CCN(c3c(C(N)=O)c(=O)n(C)c4ccccc34)CC2)o1 [Example 461, 1-methyl-4-{4-[5-(2-methylphenyl)-1,3,4-oxadiazol-2-yl]piperidin-1-yl}-2-oxo-1,2-dihydroquinoline-3-carboxamide]	77 nM
Cc1ccc2oc(C3CCN(c4c(C#N)c(=O)n(C)c5cc(OC6CCOC6)ccc45)CC3)nc2c1 (racemic) [Example 379, (rac)-1-methyl-4-[4-(5-methyl-1,3-benzoxazol-2-yl)piperidin-1-yl]-2-oxo-7-[(oxolan-3-yl)oxy]-1,2-dihydroquinoline-3-carbonitrile]	1 nM
COc1ccc(C2CCN(c3c(C#N)c(=O)n(C)c4ccc(-c5ccccc5)cc34)CC2)cc1 [Example 181, 4-[4-(4-methoxyphenyl)piperidin-1-yl]-1-methyl-2-oxo-6-phenyl-1,2-dihydroquinoline-3-carbonitrile]	150 nM
Cc1ccccc1-c1noc(C2CCN(c3c(C#N)c(=O)n(C)c4cc(O)c(Br)cc34)CC2)n1 [Example 531, 6-bromo-7-hydroxy-1-methyl-4-{4-[3-(2-methylphenyl)-1,2,4-oxadiazol-5-yl]piperidin-1-yl}-2-oxo-1,2-dihydroquinoline-3-carbonitrile]	8.1 nM
Cc1ccc2c(c1)c(N1CCC(C)(c3nc4cc(C(C)C)ccc4o3)CC1)c(C(N)=O)c(=O)n2C [Example 199, 1,6-dimethyl-4-{4-methyl-4-[5-(propan-2-yl)-1,3-benzoxazol-2-yl]piperidin-1-yl}-2-oxo-1,2-dihydroquinoline-3-carboxamide]	3.4 nM
Cc1ccc2c(c1)c(N1CCC(C)(c3nc4ccccc4o3)CC1)c(C#N)c(=O)n2C [Example 214, 4-[4-(1,3-benzoxazol-2-yl)-4-methylpiperidin-1-yl]-1,6-dimethyl-2-oxo-1,2-dihydroquinoline-3-carbonitrile]	0.9 nM
COCc1ccc2oc(C3(C)CCN(c4c(C(N)=O)c(=O)n(C)c5ccccc45)CC3)nc2c1 [Example 490, 4-{4-[5-(methoxymethyl)-1,3-benzoxazol-2-yl]-4-methylpiperidin-1-yl}-1-methyl-2-oxo-1,2-dihydroquinoline-3-carboxamide]	7.8 nM
CC(C)Oc1ccc(C2CCN(c3c(C#N)c(=O)n(C)c4ccccc34)CC2)cc1 [Example 38, 1-methyl-2-oxo-4-(4-{4-[(propan-2-yl)oxy]phenyl}piperidin-1-yl)-1,2-dihydroquinoline-3-carbonitrile]	1.5 nM
Cc1ccc2nc(C3(C)CCN(c4c(C#N)c(=O)n(C)c5ccc(C)cc45)CC3)oc2c1 [Example 188, 1,6-dimethyl-4-[4-methyl-4-(6-methyl-1,3-benzoxazol-2-yl)piperidin-1-yl]-2-oxo-1,2-dihydroquinoline-3-carbonitrile]	2.6 nM
Cc1ccc2oc(C3CCN(c4c(C#N)c(=O)n(C)c5ccc(C#N)cc45)CC3)nc2c1 [Example 403, 1-methyl-4-[4-(5-methyl-1,3-benzoxazol-2-yl)piperidin-1-yl]-2-oxo-1,2-dihydroquinoline-3,6-dicarbonitrile]	2 nM
Cc1ccc2oc(C3(C)CCN(c4c(C(N)=O)c(=O)n(C)c5ccc(P(C)(C)=O)cc45)CC3)nc2c1 [Example 452, 6-(dimethylphosphoryl)-1-methyl-4-[4-methyl-4-(5-methyl-1,3-benzoxazol-2-yl)piperidin-1-yl]-2-oxo-1,2-dihydroquinoline-3-carboxamide]	2570 nM

SMILES	IC50
Cc1ccc2oc(C3CCN(c4c(C(N)=O)c(=O)n(C)c5ccc(C#N)cc45)CC3)nc2c1 [Example 498, 6-cyano-1-methyl-4-[4-(5-methyl-1,3-benzoxazol-2-yl)piperidin-1-yl]-2-oxo-1,2-dihydroquinoline-3-carboxamide]	3.1 nM
Cc1ccc2oc(C3CCN(c4c(C#N)c(=O)n(C)c5ccc(C)cc45)CC3)nc2c1 [Example 166, 1,6-dimethyl-4-[4-(5-methyl-1,3-benzoxazol-2-yl)piperidin-1-yl]-2-oxo-1,2-dihydroquinoline-3-carbonitrile]	2.2 nM
Cc1ccc2oc(C3CCN(c4c(C#N)c(=O)n(C)c5cc(N(C)CC#N)ccc45)CC3)nc2c1 [Example 401, 7-[(cyanomethyl)(methyl)amino]-1-methyl-4-[4-(5-methyl-1,3-benzoxazol-2-yl)piperidin-1-yl]-2-oxo-1,2-dihydroquinoline-3-carbonitrile]	0.8 nM
Cc1ccccc1-c1nnc(C2CCN(c3c(C#N)c(=O)n(C)c4ccccc34)CC2)o1 [Example 351, 1-methyl-4-{4-[5-(2-methylphenyl)-1,3,4-oxadiazol-2-yl]piperidin-1-yl}-2-oxo-1,2-dihydroquinoline-3-carbonitrile]	87 nM
Cn1c(=O)c(C#N)c(N2CCC(c3cccc(F)c3)CC2)c2ccccc21 [Example 62, 4-[4-(3-fluorophenyl)piperidin-1-yl]-1-methyl-2-oxo-1,2-dihydroquinoline-3-carbonitrile]	38 nM
Cc1ccc2c(N3CCC(c4nc5ccccc5s4)CC3)c(C#N)c(=O)n(C)c2c1 [Example 222, 4-[4-(1,3-benzothiazol-2-yl)piperidin-1-yl]-1,7-dimethyl-2-oxo-1,2-dihydroquinoline-3-carbonitrile]	5.2 nM
Cc1ccc2oc(C3(C)CCN(c4c(C#N)c(=O)n(C)c5cc(OC6CC6)ccc45)CC3)nc2c1 [Example 244, 7-(cyclopropyloxy)-1-methyl-4-[4-methyl-4-(5-methyl-1,3-benzoxazol-2-yl)piperidin-1-yl]-2-oxo-1,2-dihydroquinoline-3-carbonitrile]	4.6 nM
COc1ccc2c(c1)c(N1CCC(c3nc(-c4ccccc4)no3)CC1)c(C#N)c(=O)n2C [Example 437, 6-methoxy-1-methyl-2-oxo-4-[4-(3-phenyl-1,2,4-oxadiazol-5-yl)piperidin-1-yl]-1,2-dihydroquinoline-3-carbonitrile]	27 nM
Cn1c(=O)c(C#N)c(N2CCC(c3cnc4ccccc4n3)CC2)c2ccccc21 [Example 321, 1-methyl-2-oxo-4-[4-(quinoxalin-2-yl)piperidin-1-yl]-1,2-dihydroquinoline-3-carbonitrile]	75 nM
Cc1ccc(-c2nnc(C3CCN(c4c(C#N)c(=O)n(C)c5ccccc45)CC3)o2)cc1 [Example 352, 1-methyl-4-{4-[5-(4-methylphenyl)-1,3,4-oxadiazol-2-yl]piperidin-1-yl}-2-oxo-1,2-dihydroquinoline-3-carbonitrile]	113 nM
Cn1c(=O)c(C(N)=O)c(N2CCC(c3nc4ccccc4o3)CC2)c2cc(F)ccc21 [Example 299, 4-[4-(1,3-benzoxazol-2-yl)piperidin-1-yl]-6-fluoro-1-methyl-2-oxo-1,2-dihydroquinoline-3-carboxamide]	1 nM
CC(C)c1ccc(C2CCN(c3c(C#N)c(=O)n(C)c4ccccc34)CC2)cc1 [Example 47, 1-methyl-2-oxo-4-{4-[4-(propan-2-yl)phenyl]piperidin-1-yl}-1,2-dihydroquinoline-3-carbonitrile]	3 nM
COc1ccc2cc(C3CCN(c4c(C(N)=O)c(=O)n(C)c5ccccc45)CC3)ccc2c1 [Example 457, 4-[4-(6-methoxynaphthalen-2-yl)piperidin-1-yl]-1-methyl-2-oxo-1,2-dihydroquinoline-3-carboxamide]	6.8 nM
COCc1ccc2oc(C3(C)CCN(c4c(C#N)c(=O)n(C)c5ccccc45)CC3)nc2c1 [Example 391, 4-{4-[5-(methoxymethyl)-1,3-benzoxazol-2-yl]-4-methylpiperidin-1-yl}-1-methyl-2-oxo-1,2-dihydroquinoline-3-carbonitrile]	8.3 nM
COCCNc1cc2c(cc1C)c(N1CCC(c3nc4cc(C)ccc4o3)CC1)c(C#N)c(=O)n2C [Example 547, 7-[(2-methoxyethyl)amino]-1,6-dimethyl-4-[4-(5-methyl-1,3-benzoxazol-2-yl)piperidin-1-yl]-2-oxo-1,2-dihydroquinoline-3-carbonitrile]	0.6 nM
COc1cccc(C2CCN(c3c(C#N)c(=O)n(C)c4ccccc34)CC2)c1 [Example 55, 4-[4-(3-methoxyphenyl)piperidin-1-yl]-1-methyl-2-oxo-1,2-dihydroquinoline-3-carbonitrile]	14 nM

Reference: patent US11998539B2, “Substituted aminoquinolones as DGKalpha inhibitors for immune activation” (Bayer Aktiengesellschaft, priority 2019, dated 2024)
